Assays:
[1] = system: ATP-binding aptamer incorporated DNA scaffold (DNA, duplex) ACCTGGGGGAGTATTGCGGAGGAAGGT/ACCTTCCTCCGCAATACTCCCCCAGGT; assay: Dox fluorescence quenching titration; details: aqueous solution; Dox 1 µg/mL; maximum quenching at Dox/DNA mass ratio ~1:9.8
[2] = system: ATP-binding aptamer incorporated DNA scaffold (DNA, duplex) ACCTGGGGGAGTATTGCGGAGGAAGGT/ACCTTCCTCCGCAATACTCCCCCAGGT; assay: Dox fluorescence recovery (release of intercalated Dox); details: indirect; Dox/DNA mass ratio 1:10; recovery ~20, ~36, ~56% at 4, 8, 20 mM ATP

| binding [1] | binding [2] | Structure (SMILES) |
| --- | --- | --- |
| yes |  | COc1cccc2c1C(=O)c1c(O)c3c(c(O)c1C2=O)C[C@@](O)(C(=O)CO)C[C@@H]3O[C@H]1C[C@H](N)[C@H](O)[C@H](C)O1 |
|  | yes | Nc1ncnc2c1ncn2[C@@H]1O[C@H](COP(=O)(O)OP(=O)(O)OP(=O)(O)O)[C@@H](O)[C@H]1O |
